In assay [1] the test system is RMA. In kind it is biochemical, Candida maltosa IFO 1977 strain. The conditions noted are these: for Relative activity (%) of RMA after treatment with inhibitor: inhibitor 1 mM, 30° C. for 30 minutes, untreated RMA = 100%; for inhibition of RMA (in words): treatment at 30° C. for 30 minutes, concentrations of Table 6. On the procedure:
In 1 mM concentration solution or mixture of various compounds, a polypeptide is treated at 30° C. for 30 minutes. […] Concentrations of agents at the time of treatment are illustrated in Table 6.

In assay [2] the test system is enzyme derived from Candida parapsilosis IFO 1396 strain. The settings on record: cited from earlier work.
Assay [3] has as its system RMA.
Description: Progress of oxidization reaction may be easily evaluated by, at first, preparing a reaction mixture including 2.5 mMNAD^+, a 50 mM target alcohol compound, oxidation activity of which is to be evaluated, and a polypeptide of the present invention in 50 mM tris-HCl buffer (pH 9.0), then allowing the reaction mixture to react at 30° C. and finally observing increase of absorbance at the wavelength of 340 nm, which is accompanied by increase of NADH level. […] Rapid increasing rate of the absorbance reflects high ability of the polypeptide of the present invention to oxidize a target alcohol compound. The oxidizing ability of a polypeptide may be expressed in terms of numerical values. Thus, oxidizing activity 1 U is defined as an enzyme level that catalyzes generation of 1 μmol of NADH per minute.
Physicochemical properties of RMA as obtained in the above manner were studied. Each activity was determined in accordance with a method as described in [Method for evaluating oxidizing ability to an alcohol compound].
Assay [4] has as its system RMA. It counts as biochemical, Candida maltosa IFO 1977 strain.
The test system of assay [5] is RMA. The settings on record: carbonyl compound 1.5 mM, NADH 0.25 mM, pH 6.5, 30° C.; acetophenone = 100%.

Data on 58 molecules can be found in patent US8129163B2, “Gene suitable for alcohol dehydrogenase, vector and transformant” (Kaneka Corporation, priority 2006, dated 2012).

Each structure is given as a SMILES string. Where two headings read alike, the source gives them in different places.

Regarding `O[C@H](CS)[C@H](O)CS` (racemic) [Dithiothreitol], in the assay on RMA [1], the “Relative activity (%) of RMA after treatment with inhibitor” value (“Relative activity (%) … with inhibitor” for short) is on record as 92.2% and the “inhibition of RMA (in words)” value is given as “did not”. The “inhibition of enzyme activity (in words)” value in assay [2] is “inhibited”.

Consider `CC(O)CC(C)O` (centres unmarked) [2,4-Pentandiol], for which, in the assay with RMA [3], the activity came to 34%.

As for `CCC(O)C(=O)O` (centres unmarked) [2-Hydroxybutyric acid], the activity in the assay with RMA [3] was 4.9%.

As to `CCCCCCC(C)O` (centres unmarked) [2-Octanol], the activity in the assay with RMA [3] is 134%.

Take `CCCC(C)O` (centres unmarked) [2-Pentanol]: the activity in the assay with RMA [3] was determined as 183%.

Consider `CC(C)O` [2-Propanol], for which the activity with RMA [3] was 66%.

As for `CCC(O)CC` [3-Pentanol], in the assay with RMA [3], the activity came out at 40%.

`C[C@@H](O)C[C@@H](C)O` [(2R,4R)-2,4-Pentandiol]: in the assay on RMA [3], the activity turned out to be 0.5%.

As for `C[C@@H](O)CO` [(R)-1,2-Propandiol], the activity in the assay on RMA [3] is 0.7%.

For the molecule `C[C@@H](O)CCO` [(R)-1,3-Butandiol], the activity with RMA [3] turned out to be 1.3%.

On to `C[C@H](O)CO` [(S)-1,2-propandiol], for which the activity in the assay on RMA [3] was determined as 0.7%.

Regarding `C[C@H](O)CCO` [(S)-1,3-Butandiol], the activity in the assay on RMA [3] stood at 9.5%.

Regarding `C[C@H](O)CN` [(S)-1-Amino-2-propanol], the activity in the assay on RMA [3] was 2%.

Consider `C[C@H](O)c1ccccc1` [(S)-1-Phenylethanol], for which, in the assay on RMA [3], the activity is 307%.

`C/C=C/C(=O)O` [Crotonic acid]: the “Relative activity (%) … with inhibitor” value in the assay on RMA [4] (inhibitor 50 mM, 30° C. for 30 minutes, untreated RMA = 100%) is 10.4%.

For the molecule `O=S(=O)([O-])[O-].[Cu+2]` [CuSO4, copper sulfate], in the assay with RMA [1], the “Relative activity (%) … with inhibitor” value turned out to be 28.5% and the “inhibition of RMA (in words)” value is given as “inhibited”.

As for `OC1CCCCC1` [Cyclohexanol], the activity with RMA [3] was found to be 30%.

On to `CCOC(=O)C(C)=O` [Ethyl pyruvate], for which the “Relative activity (%) (reducing activity)” value with RMA [5] is listed as 87%.

For the molecule `O=C(O)CN(CCN(CC(=O)O)CC(=O)O)CC(=O)O` [Ethylenediaminetetraacetic acid], the “inhibition of enzyme activity (in words)” value in assay [2] is recorded as “not inhibited”. In the assay with RMA [4], the “Relative activity (%) … with inhibitor” value stood at 12.9% and the “inhibition of RMA (in words)” value was “inhibited”.

For `O=CCCCC=O` [Glutaraldehyde], in the assay on RMA [5], the “Relative activity (%) (reducing activity)” value worked out at 9%.

For the molecule `[Cl][Hg][Cl]` [HgCl2, mercury chloride], in the assay with RMA [1], the “Relative activity (%) … with inhibitor” value amounted to 0.0% and the “inhibition of RMA (in words)” value is listed as “inhibited”.

As for `O=C(O)CI` [Iodoacetic acid], in the assay with RMA [4], the “Relative activity (%) … with inhibitor” value was determined as 78.9%.

In the case of `CO` [Methanol], in the assay with RMA [3], the activity is 0.6%.

`CCCCCCCCC(=O)C(=O)OC` [Methyl 2-oxodecanate]: the “Relative activity (%) (reducing activity)” value in the assay on RMA [5] is reported as 2%.

As to `COC(=O)CC(=O)CCl` [Methyl 4-chloroacetoacetate], the “Relative activity (%) (reducing activity)” value with RMA [5] is 35%.

On to `COC(=O)CC(C)=O` [Methyl acetoacetate], for which the “Relative activity (%) (reducing activity)” value with RMA [5] was 66%.

`CC(=O)C(C)C` [Methyl iso-propyl ketone]: the “Relative activity (%) (reducing activity)” value in the assay with RMA [5] is 4%.

`COC(=O)C(C)=O` [Methyl pyruvate]: the “Relative activity (%) (reducing activity)” value with RMA [5] came to 71%.

`CC(=O)CC(=O)Nc1ccc(C)cc1` [N-Acetoacetyl-p-toluidine]: the “Relative activity (%) (reducing activity)” value with RMA [5] worked out at 2%.

For `CCN1C(=O)C=CC1=O` [N-Ethylmaleimide], in the assay on RMA [1], the “Relative activity (%) … with inhibitor” value is 94.7%.

For `NO` [NH2OH], the “Relative activity (%) … with inhibitor” value with RMA [4] (inhibitor 0.01 mM, 30° C. for 30 minutes, untreated RMA = 100%) turned out to be 96.1%.

Turning to `O=S(=O)(F)Cc1ccccc1` [Phenylmethanesulfonyl fluoride], the “Relative activity (%) … with inhibitor” value in the assay with RMA [1] is on record as 96.0%.

`CCC=O` [Propionaldehyde]: in the assay on RMA [5], the “Relative activity (%) (reducing activity)” value was determined as 39%.

For the molecule `O=C1CCSC1` [Tetrahydrothiophen-3-one], in the assay with RMA [5], the “Relative activity (%) (reducing activity)” value was 4%.

`O=S(=O)([O-])[O-].[Zn+2]` [ZnSO4, zinc sulfate]: in the assay on RMA [1], the “Relative activity (%) … with inhibitor” value was 23.1% and the “inhibition of RMA (in words)” value is on record as “inhibited”.

Consider `CC(=O)C(C)=O` [diacethyl], for which the “Relative activity (%) (reducing activity)” value in the assay with RMA [5] came to 24%.

For `CC(=O)c1cccc(Cl)c1` [m-Chloroacetophenone], the “Relative activity (%) (reducing activity)” value in the assay with RMA [5] is listed as 130%.

For the molecule `CC(=O)c1cccc(O)c1` [m-Hydroxyacetophenone], in the assay with RMA [5], the “Relative activity (%) (reducing activity)” value came to 12%.

Consider `COc1cccc(C(C)=O)c1` [m-Methoxyacetophenone], for which the “Relative activity (%) (reducing activity)” value in the assay with RMA [5] is 111%.

With `CC(=O)c1cccc([N+](=O)[O-])c1` [m-Nitroacetophenone], the “Relative activity (%) (reducing activity)” value in the assay with RMA [5] was determined as 89%.

For the molecule `O=Cc1cccc([N+](=O)[O-])c1` [m-Nitrobenzaldehyde], in the assay on RMA [5], the “Relative activity (%) (reducing activity)” value is 28%.

Consider `CCCC=O` [n-Butyraldehyde], for which the “Relative activity (%) (reducing activity)” value in the assay with RMA [5] is on record as 117%.

For the molecule `CCCCCC=O` [n-Hexylaldehyde], the “Relative activity (%) (reducing activity)” value with RMA [5] was determined as 117%.

As for `CCCCCCCCOC(=O)CC(=O)CCl` [n-Octyl 4-chloroacetoacetate], the “Relative activity (%) (reducing activity)” value in the assay on RMA [5] is on record as 24%.

As to `COc1ccccc1NC(=O)CC(C)=O` [o-Acetoacetanisidide], the “Relative activity (%) (reducing activity)” value in the assay with RMA [5] is listed as 35%.

As for `CC(=O)c1ccccc1Cl` [o-Chloroacetophenone], in the assay on RMA [5], the “Relative activity (%) (reducing activity)” value is on record as 2%.

On to `CC(=O)c1ccccc1O` [o-Hydroxyacetophenone], for which, in the assay on RMA [5], the “Relative activity (%) (reducing activity)” value was determined as 9%.

With `COc1ccccc1C(C)=O` [o-Methoxyacetophenone], in the assay on RMA [5], the “Relative activity (%) (reducing activity)” value amounted to 10%.

In the case of `O=Cc1ccccc1[N+](=O)[O-]` [o-Nitrobenzeldehyde], the “Relative activity (%) (reducing activity)” value in the assay on RMA [5] is reported as 29%.

Turning to `c1cnc2c(c1)ccc1cccnc12` [o-Phenanthroline], in the assay on RMA [1], the “Relative activity (%) … with inhibitor” value worked out at 0.0% and the “inhibition of RMA (in words)” value is listed as “inhibited”.

Consider `CC(=O)c1ccc(Cl)cc1` [p-Chloroacetohenone], for which, in the assay on RMA [5], the “Relative activity (%) (reducing activity)” value is 130%.

With `O=C(O)c1cc[c]([Hg][Cl])cc1` [p-Chloromercuribenzoate], the “Relative activity (%) … with inhibitor” value in the assay with RMA [4] (inhibitor 0.05 mM, 30° C. for 30 minutes, untreated RMA = 100%) is reported as 96.3%.

Consider `CC(=O)c1ccc(F)cc1` [p-Fluoroacetophenone], for which the “Relative activity (%) (reducing activity)” value in the assay with RMA [5] came out at 110%.

As for `O=C(O)c1ccc(O)cc1` [p-Hydroxybenzoic acid], in the assay on RMA [1], the “Relative activity (%) … with inhibitor” value was 91.5%.

As to `CC(=O)c1ccc(C)cc1` [p-Methylacetophenone], in the assay with RMA [5], the “Relative activity (%) (reducing activity)” value came out at 91%.

Consider `O=Cc1ccc([N+](=O)[O-])cc1` [p-Nitrobenzaldehyde], for which, in the assay with RMA [5], the “Relative activity (%) (reducing activity)” value amounted to 27%.

Take `CC(=O)CC(=O)OC(C)(C)C` [tert-Butylacetoacetate]: the “Relative activity (%) (reducing activity)” value with RMA [5] was 88%.

As for `OCCS` [β-Mercaptoethanol], in the assay on RMA [1], the “Relative activity (%) … with inhibitor” value was determined as 95.4% and the “inhibition of RMA (in words)” value is “did not”. Further, the “inhibition of enzyme activity (in words)” value in assay [2] is reported as “inhibited”.
